Here are results for 6 compounds from article PMC7932521, “2-aminobenzimidazoles for leishmaniasis: From initial hit discovery to in vivo profiling” (PLoS Neglected Tropical Diseases, 2021).

Structures are written as SMILES. pEC50, pIC50: −log10 of the molar value. Read-outs that look alike come from different tables or passages of the source.

One data set in a line: Plasma protein binding. In kind it is in vitro ADME. The following applies: mouse, pH 7.4, % bound, read-out: Mouse PPB (converted). On the procedure:
For plasma protein binding, pooled plasma was thawed in a water bath at 37°C and centrifuged at 4,000 rpm for 5 min to remove any clots. The pH value was measured and adjusted to 7.4, if necessary. RPMI medium (pH 7.4) supplemented with 10% fetal calf serum was used. Working solutions (400 μM) of test compounds were prepared by diluting appropriate volume of the stock solutions with DMSO. Working solutions (400 μM) were spiked into plasma to achieve 2 μM final concentrations as loading solutions. The concentration of organic solvent in the final solutions was 0.5% DMSO. The dialysis instrument was assembled following manufacturer’s instructions. Aliquots of loading solution were loaded in triplicate to the donor side of each dialysis well and dialyzed against an equal volume of dialysis buffer. The plate was shaken and incubated for 6 hours in a humidified incubator with 5% CO2 at 37°C. At the end of dialysis, aliquots of dialysate and retentate were removed into sample collection plates. Each sample was matched with an opposite blank buffer or plasma, with a ratio of matrix:dialysis buffer of 50:50 (v:v) in each well and participated with 500μL of stop solution (50% acetonitrile/methanol; internal standards—200 ng/mL tolbutamide, labetalol and 50 ng/mL metformin). All sample collection plates were rotated at 800 rpm for 5 min to mix samples and centrifuged at 20°C, 4000 rpm for 20 min. Aliquots of supernatant of all the samples were removed and injected into LC-MS/MS. Results were calculated as the percentage of remaining parent compound in plasma or medium after incubation.

A short description of a further data set: Mouse 5-day tolerability. It is filed as in vivo. The following applies: healthy mice. As to the method:
Compounds were administered to groups (n = 3) of female BALB/c mice via oral gavage in a 5-day exploratory repeat-dose study at doses of 25, 50 and 100 mg/kg/day, employing a solution/suspension vehicle comprising 10% ethanol, 40% PEG400 and 0.4% Tween80 in saline buffer (pH adjusted to 9). Repeat-dose toxicity was evaluated based on mortality, clinical observations, body weight and macroscopic organ pathologies.

Data set [1] has as its system L. infantum MHOM/BR/2007/WC (L3015). Nature of the data set: VL/CL panel, intracellular amastigotes. In kind it is cell-based. To be noted: Leishmania infantum; average; read-out: IC-50 L. infantum MHOM/BR/2007/WC (L3015). On the procedure: (§1) For the antileishmania in vitro assays, 3×10^4 PMM/well were seeded in 96-well plates. After 24h, 5×10^5 amastigotes/well were added and incubated for 2h at 37°C. Next, the compounds in 4-fold serial dilutions were added and the plates were further incubated for 5 days (37°C, 5% CO2). Parasite burdens were assessed using an inverted microscope after Giemsa staining. The results were expressed as percent reduction in parasite burdens compared to negative control wells (100% growth) and IC50 values were determined. Values represent the geometric mean of at least two independent experiments. Miltefosine was used as the positive control in all plates.

In data set [2] the test system is L. major MHOM/IL/81/Friedlin. Kind of data set: VL/CL panel, intracellular amastigotes. It is filed as cell-based. The following applies: Leishmania major; average; read-out: IC-50 L. major MHOM/IL/81/Friedlin. As to the method: as §1
Data set [3] concerns L. donovani MHOM/ET/2007/LLM-1600. Kind of data set: VL/CL panel, intracellular amastigotes. The following applies: Leishmania donovani; average; read-out: IC-50 L. donovani MHOM/ET/2007/LLM-1600. It is filed as cell-based. On the procedure:
as §1

Data set [4] relates to L. infantum MHOM/ES/2016/LLM-2346. Nature of the data set: VL/CL panel, intracellular amastigotes. The following applies: Leishmania infantum; average; read-out: IC-50 L. infantum MHOM/ES/2016/LLM-2346. In kind it is cell-based. As to the method:
as §1

Data set [5] deals with L. donovani MHOM/NP/03/BPK275/0-cl18. Kind of data set: VL/CL panel, intracellular amastigotes. In kind it is cell-based. To be noted: Leishmania donovani; average; read-out: IC-50 L. donovani MHOM/NP/03/BPK275/0-cl18. As to the method: as §1
The nature of the next data set: MRC-5 cytotoxicity. It is filed as cell-based. The following applies: human, MRC-5 cells; S1 Data.
The next data set has as its system MRC-5 cells. Nature of the data set: MRC-5 cytotoxicity. It is filed as cell-based. The following applies: for pIC50: Homo sapiens, MRC5, panel sheet, average, read-out: IC-50 MRC-5 cells; for CC50: S1 Data.
Data set [6] is described as follows: Mouse single-dose pharmacokinetics. In kind it is in vivo. To be noted: for free plasma concentration (corrected by PPB) versus in vitro IC50 (corrected for medium binding): after single oral dosing. On the procedure: Compounds were administered to groups (n = 6) of female BALB/c mice via single intravenous dosing (at 2 mg/kg) or single oral dosing (at 50 mg/kg) employing a solution/suspension vehicle comprising of 10% ethanol, 40% PEG400 and 0.4% Tween80 in saline buffer (pH adjusted to 9). Samples derived from plasma (at 0.083 for iv only, 0.25, 1, 2, 4, 8 and 24 h) were quantified by LC−MS/MS. Data analysis and calculation of pharmacokinetic parameters was performed using Phoenix WinNonlin version 7.0.

Data set [7] in a line: Human liver microsomal stability. In kind it is in vitro ADME. The following applies: liver microsomes, pH 7.4; human liver microsome; read-out: HLM Clint. As to the method: The metabolic stability of the compounds was evaluated in human (pool of 200 donors, XenoTech) and mouse liver microsomes (CD1 mouse, GIBCO). Test compounds were prepared at a concentration of 0.5 μM and incubated with 0.25 mg/mL liver microsomes at pH 7.4 and 37°C. The reaction was started by addition of NADPH at […]. Samples were taken at 0, 5, 10, 15, 20 and 30 minutes. The reaction was stopped by the addition of acetonitrile:methanol (1:1) containing an internal standard (tolbutamide at 50 nM). Compounds were quantified by liquid chromatography triple quadrupole mass spectrometry (LC-MS/MS). Peak area ratios (analyte/internal standard) were converted to % remaining using the area ratio at time 0 as 100%. Half-life (t1/2 = ln(2)/k) in minutes and intrinsic clearance (Clint = k x 1000/(0.25)) in μL/min/mg were calculated using a non-linear regression from % remaining versus incubation time. From this plot, the slope (k) was determined. The analysis conditions were: analytical column (Gemini C18, […], Phenomenex), electrospray ionization source (ESI) in positive and negative mode, mobile phase A (water + 0.1% formic acid) and B (acetonitrile + 0.1% formic acid), flow rate of 0.7 mL/min.

The next data set has as its target T1, 5-HT2B (Homo sapiens, UniProt P41595).
T1 construct: expressed in transfected cells; host or cells: CHO
Nature of the data set: Bioprofiling 6pt Ag 5-HT2B CHO. In kind it is cell-based. The following applies: agonist readout. On the procedure:
(§2) The compounds were evaluated across a panel of 20 liability targets (37 functional assays) which included functional cell-based GPCRs and ion channels in both agonist and antagonist readout, measuring calcium flux and biochemical functional assays for nuclear hormone receptors and phosphodiesterases using TR-FRET format, in a 6 point 1:3 dilution dose series (maximum final concentration of 10 μM).

A further data set concerns the target T2, Opioid mu (Homo sapiens, UniProt P35372).
T2 construct: expressed in transfected cells; host or cells: CHO
Nature of the data set: Bioprofiling 6pt Ag Opioid mu CHO. It is filed as cell-based. To be noted: agonist readout. On the procedure: as §2

Setting [8] is: female, BALB/c, plasma, single oral dose 50 mg/kg.
Where [9] appears, read: female, BALB/c, plasma, single oral dose 50 mg/kg, read-out: Cmax.

T2 sequence (P35372 whole entry): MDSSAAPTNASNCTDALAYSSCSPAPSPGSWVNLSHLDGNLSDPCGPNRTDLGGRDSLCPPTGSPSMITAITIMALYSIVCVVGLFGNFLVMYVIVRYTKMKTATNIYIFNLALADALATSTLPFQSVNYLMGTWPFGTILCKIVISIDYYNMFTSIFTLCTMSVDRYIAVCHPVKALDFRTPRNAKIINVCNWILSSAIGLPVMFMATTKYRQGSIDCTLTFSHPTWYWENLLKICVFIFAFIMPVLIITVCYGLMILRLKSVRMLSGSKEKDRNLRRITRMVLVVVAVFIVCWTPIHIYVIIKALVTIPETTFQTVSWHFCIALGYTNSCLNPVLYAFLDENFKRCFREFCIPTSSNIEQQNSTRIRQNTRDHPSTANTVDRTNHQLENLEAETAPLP
T1 sequence (P41595 whole entry): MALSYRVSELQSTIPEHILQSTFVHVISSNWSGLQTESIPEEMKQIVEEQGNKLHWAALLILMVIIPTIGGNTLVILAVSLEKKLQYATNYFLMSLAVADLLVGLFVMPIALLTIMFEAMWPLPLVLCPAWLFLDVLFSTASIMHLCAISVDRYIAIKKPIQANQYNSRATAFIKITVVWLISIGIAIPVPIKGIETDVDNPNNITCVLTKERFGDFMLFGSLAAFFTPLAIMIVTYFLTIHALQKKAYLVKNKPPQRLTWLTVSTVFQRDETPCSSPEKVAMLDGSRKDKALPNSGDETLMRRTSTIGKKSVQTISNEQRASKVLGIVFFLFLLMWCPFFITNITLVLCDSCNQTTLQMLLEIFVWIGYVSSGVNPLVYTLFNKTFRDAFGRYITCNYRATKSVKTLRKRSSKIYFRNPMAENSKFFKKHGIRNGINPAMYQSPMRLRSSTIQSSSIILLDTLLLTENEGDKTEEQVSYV

For the compound `Cn1nccc1C(=O)Nc1nc2ccc(C#N)cc2n1CC(C)(C)C` [Compound 29, O=C(Nc1n(CC(C)(C)C)c(c2n1)cc(C#N)cc2)c3n(C)ncc3], the fraction unbound at 6 h, 2 μM in “Plasma protein binding” is 0.029. The 5-day tolerability result in “Mouse 5-day tolerability” (oral 25 mg/kg/day) is “well tolerated”; in “Mouse 5-day tolerability” (oral 50 mg/kg/day) it was “clinical signs from day 3 of treatment”; in “Mouse 5-day tolerability” (oral top dose (100 mg/kg/day)), “body weight reduction and severe toxic signs, including mortality”. In addition, the pIC50 was 5.57 in [1]; 5.77 in data set [2]; 5.39 in data set [3]; 5.50 in data set [4]; 5.99 in data set [5]; less than 4.19 in the data set with MRC-5 cells. Further, the CC50 (usually the concentration giving 50% cytotoxicity) in “MRC-5 cytotoxicity” was determined as 14.9 µM. Moreover, in data set [6], the “higher AUClast, 50 vs 10 mg/kg oral” value is reported as “approximately 4 fold”. Besides, in [6], the “increase in Cmax, 50 vs 10 mg/kg oral” value is 2 fold. The “free plasma concentration (corrected by PPB) versus in vitro IC50 (corrected for medium binding)” value in [6] is reported as “below the in vitro IC50”. Besides, in [6] (female, BALB/c, plasma, 2 mg/kg IV), the clearance (usually the rate of elimination divided by the concentration) turned out to be 9 mL/min/kg. Besides, the AUC(0-t) (as a rule, the area under the concentration-time curve up to a stated or last time point) in [6] (setting [8]) amounted to 35400 ng·h/mL. Further, in data set [6] (setting [8]), the bioavailability (in general, dose-corrected exposure relative to a reference, in per cent) came to 37%. The Cmax – broadly, the maximum level reached in the sampled fluid or tissue – in data set [6] (setting [9]) is 2000 ng/mL. The microsomal CLint at 0.5 μM in data set [7] stood at 25 µL/min/mg. Moreover, the pEC50 on 5-HT2B and at Opioid mu was less than 5.00 throughout.
Regarding `N#Cc1ccc2nc(NC(=O)c3ccnc(C(F)(F)F)c3)n(CC(F)(F)F)c2c1` [Compound 44, O=C(c1ccnc(C(F)(F)F)c1)Nc2nc(ccc(C#N)c3)c3n2CC(F)(F)F], the fraction unbound at 6 h, 2 μM in the data set “Plasma protein binding” was 0.008. Moreover, in the data set with MRC-5 cells, the CC50 is greater than 64 µM. Further, the microsomal CLint at 0.5 μM in data set [7] came to 30 µL/min/mg. Also, the pEC50 on 5-HT2B and at Opioid mu was less than 5.00 in each case.
With `Cn1nc(C(F)(F)F)cc1C(=O)Nc1nc2ccc(C#N)cc2n1CC(F)(F)F` [Compound 39, O=C(c1cc(C(F)(F)F)nn1C)Nc2nc(ccc(C#N)c3)c3n2CC(F)(F)F], the fraction unbound at 6 h, 2 μM in the data set “Plasma protein binding” is 0.006. The 5-day tolerability entry was “well tolerated” in “Mouse 5-day tolerability” (oral 25 mg/kg/day); “clinical signs from day 3 of treatment” in “Mouse 5-day tolerability” (oral 50 mg/kg/day); “body weight reduction and severe toxic signs, including mortality” in the data set “Mouse 5-day tolerability” (oral top dose (100 mg/kg/day)). Moreover, the pIC50 in [1] is 5.44; in data set [2], 5.52; in [3], 5.79; in data set [4] it was 5.33; in data set [5], 6.96; in the data set on MRC-5 cells it was 4.83. This compound came in with a CC50 in “MRC-5 cytotoxicity” of 7.87 µM. In addition, the “free plasma concentration (corrected by PPB) versus in vitro IC50 (corrected for medium binding)” value in data set [6] is listed as “up to four times above the free IC50”. The peak concentration (Cmax) in [6] (female, BALB/c, plasma, single 50 mg/kg oral dose, read-out: total Cmax) was roughly 17 µM; in data set [6] (setting [9]), 7300 ng/mL. In data set [6] (setting [8]), this compound came in with an AUC(0-t) of 63700 ng·h/mL. The half-life (in general, the time needed for the level to fall by half in the phase considered) in data set [6] (setting [8]) was 8 h. Moreover, the “exposure (AUClast) compared to 29 at the same dose” value in data set [6] (oral 50 mg/kg) is reported as 2 fold. For the same compound, in data set [7], the microsomal CLint at 0.5 μM is 20 µL/min/mg. In addition, the pEC50 on 5-HT2B and on Opioid mu was less than 5.00 throughout.
In the case of `COc1ccc(C(=O)Nc2nc3ccc(C#N)cc3n2CC(F)(F)F)cn1` [Compound 43, O=C(c1ccc(OC)nc1)Nc2nc(ccc(C#N)c3)c3n2CC(F)(F)F], in the data set “MRC-5 cytotoxicity”, the CC50 is greater than 64 µM. The pEC50 on 5-HT2B and on Opioid mu was less than 5.00 each time.
In the case of `N#Cc1ccc2nc(NC(=O)c3ccc(C(F)(F)F)nc3)n(CC(F)(F)F)c2c1` [Compound 45, O=C(c1ccc(C(F)(F)F)nc1)Nc2nc(ccc(C#N)c3)c3n2CC(F)(F)F], in the data set on MRC-5 cells, the CC50 was greater than 64 µM. For the same compound, the pEC50 on 5-HT2B and on Opioid mu was less than 5.00 each time.
On to `Cn1nccc1C(=O)Nc1nc2ccc(C#N)cc2n1CC(F)(F)F` [Compound 30, O=C(c1ccnn1C)Nc2nc(ccc(C#N)c3)c3n2CC(F)(F)F], for which the fraction unbound at 6 h, 2 μM in the data set “Plasma protein binding” was 0.042. Moreover, the CC50 in “MRC-5 cytotoxicity” was determined as 12.8 µM. In addition, in data set [6] (setting [8]), the AUC(0-t) stood at 25200 ng·h/mL and the half-life is 6.8 h. Further, in [6] (setting [9]), the Cmax is 2000 ng/mL. The microsomal CLint at 0.5 μM in data set [7] came out at 17 µL/min/mg. Moreover, the pEC50 (usually −log10 of the EC50, conventionally taken in molar units) on 5-HT2B is less than 5.00. The same compound showed a pEC50 on Opioid mu of less than 5.00.
